{
  "source": "ChEMBL document CHEMBL1208777",
  "about": "“Synthesis of novel oxime-containing pyrazole derivatives and discovery of regulators for apoptosis and autophagy in A549 lung cancer cells” (Bioorg Med Chem Lett, 2010)",
  "key": {"A549 [1]": {"tested_on": "A549", "test": "Induction of necrosis in human A549 cells assessed as LDH release at 40 uM after 48 hrs", "format": "functional, cell-based"}, "A549 [2]": {"tested_on": "A549", "test": "Cytotoxicity against human A549 cells at 10 to 40 uM by SRB assay", "format": "functional, cell-based", "settings": "TDE = time-dependent effect"}, "A549 [3]": {"tested_on": "A549", "test": "Cytotoxicity against human A549 cells after 48 hrs by SRB assay", "format": "functional, cell-based", "settings": "for IC50: A549, 48 h"}, "A549 [4]": {"tested_on": "A549", "test": "Anticancer activity against human A549 cells assessed as increase in autophagosome level at 40 uM after 24 hrs by Western blot analysis", "format": "functional, cell-based"}, "A549 [5]": {"tested_on": "A549", "test": "Anticancer activity against human A549 cells assessed as occurrence of autophagy at 10 to 40 uM after 48 hrs by acridine orange staining-based fluorescence microscopy", "format": "functional, cell-based"}, "A549 [6]": {"tested_on": "A549", "test": "Induction of apoptosis in human A549 cells assessed as occurrence of nuclear granulation at 10 to 40 uM after 48 hrs by Hoechst 33258 staining-based fluorescence microscopy", "format": "functional, cell-based"}, "A549 [7]": {"tested_on": "A549", "test": "Anticancer activity against human A549 cells assessed as increase in autophagosome level at 20 uM after 24 hrs by Western blot analysis", "format": "functional, cell-based"}, "A549 [8]": {"tested_on": "A549", "test": "Cytotoxicity against human A549 cells at 20 uM after 48 hrs by SRB assay", "format": "functional", "settings": "A549, 48 h"}, "A549 [9]": {"tested_on": "A549", "test": "Cytotoxicity against human A549 cells at 10 uM after 48 hrs by SRB assay", "format": "functional", "settings": "A549, 48 h"}, "A549 [10]": {"tested_on": "A549", "test": "Cytotoxicity against human A549 cells at 40 uM after 48 hrs by SRB assay", "format": "functional", "settings": "A549, 48 h"}},
  "note": "Calls of active or inactive are those of the source. No cut-off for these calls is given here.",
  "data": [
    {"smiles": "CCOC(=O)c1cc(-c2ccccc2)nn1C/C(=N/O)c1ccc(OC)cc1", "values": [
      {"measurement": "Activity", "setting": "A549 [1]", "result": "inactive"},
      {"measurement": "Activity", "setting": "A549 [2]", "result": "tde"},
      {"measurement": "Activity", "setting": "A549 [3]", "result": "Dose-dependent effect"},
      {"measurement": "IC50", "setting": "A549 [3]", "result": 29.1, "unit": "µM"},
      {"measurement": "Activity", "setting": "A549 [4]", "result": "inactive"}
    ]},
    {"smiles": "CCOC(=O)c1cc(-c2ccc(OC)cc2)nn1C/C(=N/O)c1ccc(OC)cc1", "values": [
      {"measurement": "Activity", "setting": "A549 [1]", "result": "inactive"},
      {"measurement": "Activity", "setting": "A549 [2]", "result": "tde"},
      {"measurement": "Activity", "setting": "A549 [5]", "result": "Active"},
      {"measurement": "Activity", "setting": "A549 [3]", "result": "Dose-dependent effect"},
      {"measurement": "IC50", "setting": "A549 [3]", "result": 36.5, "unit": "µM"},
      {"measurement": "Activity", "setting": "A549 [4]", "result": "Active"}
    ]},
    {"smiles": "CCOC(=O)c1cc(-c2ccc(Cl)cc2)nn1C/C(=N/O)c1ccccc1", "values": [
      {"measurement": "Activity", "setting": "A549 [6]", "result": "Active"},
      {"measurement": "Activity", "setting": "A549 [1]", "result": "inactive"},
      {"measurement": "Activity", "setting": "A549 [2]", "result": "tde"},
      {"measurement": "Activity", "setting": "A549 [5]", "result": "Active"},
      {"measurement": "Activity", "setting": "A549 [3]", "result": "Dose-dependent effect"},
      {"measurement": "IC50", "setting": "A549 [3]", "result": 31.4, "unit": "µM"},
      {"measurement": "Activity", "setting": "A549 [4]", "result": "Active"}
    ]},
    {"smiles": "CCOC(=O)c1cc(-c2ccccc2)nn1C/C(=N/O)c1ccccc1", "values": [
      {"measurement": "Activity", "setting": "A549 [6]", "result": "Active"},
      {"measurement": "Activity", "setting": "A549 [1]", "result": "inactive"},
      {"measurement": "Activity", "setting": "A549 [2]", "result": "tde"},
      {"measurement": "Activity", "setting": "A549 [3]", "result": "Dose-dependent effect"},
      {"measurement": "IC50", "setting": "A549 [3]", "result": 29.8, "unit": "µM"}
    ]},
    {"smiles": "CCOC(=O)c1cc(-c2ccc(Cl)cc2)nn1C/C(=N/O)c1ccc(OC)cc1", "values": [
      {"measurement": "Activity", "setting": "A549 [1]", "result": "inactive"},
      {"measurement": "Activity", "setting": "A549 [2]", "result": "tde"},
      {"measurement": "Activity", "setting": "A549 [5]", "result": "Active"},
      {"measurement": "Activity", "setting": "A549 [3]", "result": "Dose-dependent effect"},
      {"measurement": "IC50", "setting": "A549 [3]", "result": 17.8, "unit": "µM"},
      {"measurement": "Activity", "setting": "A549 [4]", "result": "Active"}
    ]},
    {"smiles": "CCOC(=O)c1cc(-c2ccccc2)nn1C/C(=N/O)c1ccc(Cl)cc1", "values": [
      {"measurement": "Activity", "setting": "A549 [6]", "result": "Active"},
      {"measurement": "Activity", "setting": "A549 [1]", "result": "inactive"},
      {"measurement": "Activity", "setting": "A549 [2]", "result": "tde"},
      {"measurement": "Activity", "setting": "A549 [7]", "result": "Active"},
      {"measurement": "Activity", "setting": "A549 [5]", "result": "Active"},
      {"measurement": "Activity", "setting": "A549 [3]", "result": "Dose-dependent effect"},
      {"measurement": "IC50", "setting": "A549 [3]", "result": 26.3, "unit": "µM"}
    ]},
    {"smiles": "CCOC(=O)c1cc(-c2ccc(OC)cc2)nn1C/C(=N/O)c1ccc(Cl)cc1", "values": [
      {"measurement": "Activity", "setting": "A549 [6]", "result": "Active"},
      {"measurement": "Activity", "setting": "A549 [1]", "result": "inactive"},
      {"measurement": "Activity", "setting": "A549 [2]", "result": "tde"},
      {"measurement": "Activity", "setting": "A549 [5]", "result": "Active"},
      {"measurement": "Activity", "setting": "A549 [3]", "result": "Dose-dependent effect"},
      {"measurement": "IC50", "setting": "A549 [3]", "result": 16.3, "unit": "µM"},
      {"measurement": "Activity", "setting": "A549 [4]", "result": "Active"}
    ]},
    {"smiles": "CCOC(=O)c1cc(-c2ccc(Cl)cc2)nn1C/C(=N/O)c1ccc(Cl)cc1", "values": [
      {"measurement": "Activity", "setting": "A549 [6]", "result": "Active"},
      {"measurement": "Activity", "setting": "A549 [1]", "result": "inactive"},
      {"measurement": "inhibition at 20 µM", "setting": "A549 [8]", "result": 51.9, "unit": "%"},
      {"measurement": "Activity", "setting": "A549 [2]", "result": "tde"},
      {"measurement": "Activity", "setting": "A549 [7]", "result": "Active"},
      {"measurement": "inhibition at 10 µM", "setting": "A549 [9]", "result": 58.6, "unit": "%"},
      {"measurement": "Activity", "setting": "A549 [5]", "result": "Active"},
      {"measurement": "Activity", "setting": "A549 [3]", "result": "Dose-dependent effect"},
      {"measurement": "IC50", "setting": "A549 [3]", "result": 14.6, "unit": "µM"},
      {"measurement": "inhibition at 40 µM", "setting": "A549 [10]", "result": 10.3, "unit": "%"}
    ]},
    {"smiles": "CCOC(=O)c1cc(-c2ccc(OC)cc2)nn1C/C(=N/O)c1ccccc1", "values": [
      {"measurement": "Activity", "setting": "A549 [6]", "result": "Active"},
      {"measurement": "Activity", "setting": "A549 [1]", "result": "inactive"},
      {"measurement": "Activity", "setting": "A549 [2]", "result": "tde"},
      {"measurement": "Activity", "setting": "A549 [3]", "result": "Dose-dependent effect"},
      {"measurement": "IC50", "setting": "A549 [3]", "result": 42.7, "unit": "µM"}
    ]}
  ]
}
